Experiments:
Cavia porcellus [1] = species: Cavia porcellus; test: Evaluated for the percent efficacy in guinea pig ileum contraction model; format: functional
Cavia porcellus [2] = species: Cavia porcellus; test: Evaluated for the muscarinic potency in guinea pig ileum contraction model; format: functional
Rattus norvegicus [3] = species: Rattus norvegicus; test: Evaluated for the muscarinic potency in depolarizations of rat superior cervical ganglion; format: functional
Rattus norvegicus [4] = species: Rattus norvegicus; test: Evaluated for the muscarinic potency in rat hippocampal slice preparations; format: functional, Hippocampus
[5] = target: T1, Muscarinic acetylcholine receptor M1 (Rattus norvegicus, UniProt P08482); test: Evaluated for inhibition of binding of [3H]pirenzepine to homogenized rat cerebral cortex membranes; format: cell membranes, Membrane
T1 sequence (P08482 whole entry): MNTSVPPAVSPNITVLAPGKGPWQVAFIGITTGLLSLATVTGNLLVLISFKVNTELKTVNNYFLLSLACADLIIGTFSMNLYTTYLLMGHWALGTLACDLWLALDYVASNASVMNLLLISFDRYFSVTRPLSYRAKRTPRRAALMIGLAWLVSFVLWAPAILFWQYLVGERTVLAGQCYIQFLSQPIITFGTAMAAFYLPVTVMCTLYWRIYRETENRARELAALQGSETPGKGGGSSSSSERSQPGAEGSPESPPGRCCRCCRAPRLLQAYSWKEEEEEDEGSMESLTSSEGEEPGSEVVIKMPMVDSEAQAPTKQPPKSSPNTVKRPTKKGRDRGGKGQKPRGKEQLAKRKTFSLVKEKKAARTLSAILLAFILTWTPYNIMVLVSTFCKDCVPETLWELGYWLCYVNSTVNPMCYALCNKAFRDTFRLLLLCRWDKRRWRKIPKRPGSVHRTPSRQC

Rattus norvegicus [6] = species: Rattus norvegicus; test: Evaluated for the muscarinic potency in rat superior cervical ganglion; format: functional
Rattus norvegicus [7] = species: Rattus norvegicus; test: Evaluated for the percentage efficacy in rat superior cervical ganglion; format: functional
Rattus norvegicus [8] = species: Rattus norvegicus; test: Evaluated for the percentage efficacy in rat hippocampal slice preparations; format: functional, Hippocampus
Rattus norvegicus [9] = species: Rattus norvegicus; test: Evaluated for the percentage efficacy in depolarizations of rat superior cervical ganglion; format: functional

Question: Which results are given for `COC(=O)[C@H]1C[C@@H]2CN[C@H]1C2`?
Answer: Efficacy (Cavia porcellus [1]): 94%; pD2 (Cavia porcellus [2]): 5.2; Efficacy (Rattus norvegicus [3]): 47%; pD2 (Rattus norvegicus [3]): 5.2; pD2 (Rattus norvegicus [4]): <4; IC50 [5]: 2570 nM

Question: How did the Efficacy (Cavia porcellus [1]) turn out when `COC(=O)[C@H]1C[C@H]2C[C@@H]1N(C)C2` was run?
Answer: The Efficacy was 68%.

Question: What about the pD2 (Cavia porcellus [2]) of the same compound?
Answer: Its pD2 is 4.9.

Question: And the pD2 (Rattus norvegicus [6])?
Answer: Its pD2 is 5.9.

Question: What about the Efficacy (Rattus norvegicus [7]) of the same compound?
Answer: The Efficacy was 71%.

Question: What about the pD2 (Rattus norvegicus [4]) of the same compound?
Answer: The pD2 was less than 4.

Question: What about the IC50 [5] of the same compound?
Answer: Its IC50 is 1910 nM.

Question: `COC(=O)[C@@H]1C[C@@H]2C[C@H]1N(C)C2` was tested. Which pD2 (Cavia porcellus [2]) did it give?
Answer: Its pD2 is less than 4.

Question: What about the Efficacy (Rattus norvegicus [3]) of the same compound?
Answer: The Efficacy was 70%.

Question: What about the pD2 (Rattus norvegicus [3]) of the same compound?
Answer: The pD2 was 4.4.

Question: What about the pD2 (Rattus norvegicus [4]) of the same compound?
Answer: The pD2 was 5.9.

Question: What about the IC50 [5] of the same compound?
Answer: Its IC50 is 3890 nM.

Question: What about the Efficacy (Rattus norvegicus [8]) of the same compound?
Answer: The Efficacy was 33%.

Question: `COC(=O)[C@@H]1C[C@H]2CN[C@@H]1C2` was tested. Which Efficacy (Cavia porcellus [1]) did it give?
Answer: Its Efficacy is 120%.

Question: What about the pD2 (Cavia porcellus [2]) of the same compound?
Answer: The pD2 was 6.

Question: What about the Efficacy (Rattus norvegicus [3]) of the same compound?
Answer: Its Efficacy is 90%.

Question: And the pD2 (Rattus norvegicus [3])?
Answer: The pD2 was 6.7.

Question: And the pD2 (Rattus norvegicus [4])?
Answer: Its pD2 is 6.

Question: What about the IC50 [5] of the same compound?
Answer: Its IC50 is 1410 nM.

Question: What about the Efficacy (Rattus norvegicus [8]) of the same compound?
Answer: Its Efficacy is 120%.

Question: For `COC(=O)C1CC2CNC1C2` (racemic), which Efficacy (Cavia porcellus [1]) is on record?
Answer: The Efficacy was 91%.

Question: What about the pD2 (Cavia porcellus [2]) of the same compound?
Answer: Its pD2 is 6.2.

Question: And the Efficacy (Rattus norvegicus [3])?
Answer: The Efficacy was 57%.

Question: What about the pD2 (Rattus norvegicus [3]) of the same compound?
Answer: The pD2 was 6.3.

Question: What about the pD2 (Rattus norvegicus [4]) of the same compound?
Answer: Its pD2 is 5.5.

Question: What about the IC50 [5] of the same compound?
Answer: Its IC50 is 1950 nM.

Question: What about the Efficacy (Rattus norvegicus [8]) of the same compound?
Answer: The Efficacy was 103%.

Question: What does the source list for `COC(=O)C1CC2CC1N(C)C2` (racemic)?
Answer: Efficacy (Cavia porcellus [1]): 58%; pD2 (Cavia porcellus [2]): 4.2; Efficacy (Rattus norvegicus [3]): 82%; pD2 (Rattus norvegicus [3]): 5; pD2 (Rattus norvegicus [4]): 5.4; IC50 [5]: 2820 nM; Efficacy (Rattus norvegicus [8]): 39%

Question: `COC(=O)C1=CCCN(C)C1` [ARECOLINE] was tested. Which Efficacy (Cavia porcellus [1]) did it give?
Answer: The Efficacy was 100%.

Question: And the pD2 (Cavia porcellus [2])?
Answer: Its pD2 is 6.5.

Question: And the Efficacy (Rattus norvegicus [9])?
Answer: The Efficacy was 80%.

Question: What about the pD2 (Rattus norvegicus [3]) of the same compound?
Answer: The pD2 was 6.6.

Question: And the pD2 (Rattus norvegicus [4])?
Answer: Its pD2 is 6.1.

Question: What about the Efficacy (Rattus norvegicus [8]) of the same compound?
Answer: Its Efficacy is 100%.

Reference: ChEMBL document CHEMBL1152096 (Bioorg Med Chem Lett, 1992)
